# Test results taken from article PMC12274840 (The Journal of Biological Chemistry, 2025).
# Where two headings read alike, the source gives them in different places.
# Key:
# [1] = test system: E. coli KA797 cells carrying pUK21 with CTX-M-14 WT (Tat); experiment: microbe, parasite or virus in culture; assay type: cell-based; conditions: Escherichia coli, antibiotic alone
# [2] = test system: E. coli KA797 cells carrying BlaC position 105 library; assay type: cell-based, Escherichia coli; conditions: carbenicillin; for Fi CAR AVG: average of replicates
# [3] = test system: E. coli KA797 cells carrying CTX-M-14 position 105 library; assay type: cell-based
# [4] = test system: E. coli KA797 cells carrying NmcA position 105 library; assay type: cell-based
compound,measurement,setting,value
CC1(C)S[C@@H]2[C@H](NC(=O)C(C(=O)O)c3ccccc3)C(=O)N2[C@H]1C(=O)O (some centres unmarked) [carbenicillin],MIC,[1],16 mg/mL
same,Fi CAR AVG,[2]; AA 105 Ala,-0.273
same,Fi CAR 1,"[2]; AA 105 Ala, replicate 1",-0.487
same,Fi CAR 3,"[2]; AA 105 Ala, replicate 3",-0.060
same,Fi CAR AVG,[2]; AA 105 Arg,0.354
same,Fi CAR 1,"[2]; AA 105 Arg, replicate 1",-0.038
same,Fi CAR 2,"[2]; AA 105 Arg, replicate 2",0.623
same,Fi CAR 3,"[2]; AA 105 Arg, replicate 3",0.477
same,Fi CAR AVG,[2]; AA 105 Asn,0.070
same,Fi CAR 1,"[2]; AA 105 Asn, replicate 1",0.359
same,Fi CAR 2,"[2]; AA 105 Asn, replicate 2",-0.104
same,Fi CAR 3,"[2]; AA 105 Asn, replicate 3",-0.045
same,Fi CAR AVG,[2]; AA 105 Asp,0.382
same,Fi CAR 1,"[2]; AA 105 Asp, replicate 1",0.054
same,Fi CAR 2,"[2]; AA 105 Asp, replicate 2",0.201
same,Fi CAR 3,"[2]; AA 105 Asp, replicate 3",0.891
same,Significance (Fi CAR AVG),[2]; AA 105 Cys,+
same,Fi CAR AVG,[2]; AA 105 Cys,0.765
same,Fi CAR 1,"[2]; AA 105 Cys, replicate 1",0.616
same,Fi CAR 2,"[2]; AA 105 Cys, replicate 2",0.636
same,Fi CAR 3,"[2]; AA 105 Cys, replicate 3",1.043
same,Significance (Fi CAR AVG),[2]; AA 105 Gln,+
same,Fi CAR AVG,[2]; AA 105 Gln,1.328
same,Fi CAR 1,"[2]; AA 105 Gln, replicate 1",1.419
same,Fi CAR 2,"[2]; AA 105 Gln, replicate 2",1.237
same,Fi CAR AVG,[2]; AA 105 Glu,0.421
same,Fi CAR 1,"[2]; AA 105 Glu, replicate 1",1.372
same,Fi CAR 2,"[2]; AA 105 Glu, replicate 2",-0.419
same,Fi CAR 3,"[2]; AA 105 Glu, replicate 3",0.311
same,Significance (Fi CAR AVG),[2]; AA 105 Gly,-
same,Fi CAR AVG,[2]; AA 105 Gly,-0.444
same,Fi CAR 1,"[2]; AA 105 Gly, replicate 1",-0.596
same,Fi CAR 2,"[2]; AA 105 Gly, replicate 2",-0.209
same,Fi CAR 3,"[2]; AA 105 Gly, replicate 3",-0.526
same,Significance (Fi CAR AVG),[2]; AA 105 His,+
same,Fi CAR AVG,[2]; AA 105 His,2.514
same,Fi CAR 1,"[2]; AA 105 His, replicate 1",2.622
same,Fi CAR 2,"[2]; AA 105 His, replicate 2",2.393
same,Fi CAR 3,"[2]; AA 105 His, replicate 3",2.527
same,Fi CAR AVG,[2]; AA 105 Ile (WT),0.000
same,Fi CAR 1,"[2]; AA 105 Ile (WT), replicate 1",0.000
same,Fi CAR 2,"[2]; AA 105 Ile (WT), replicate 2",0.000
same,Fi CAR 3,"[2]; AA 105 Ile (WT), replicate 3",0.000
same,Significance (Fi CAR AVG),[2]; AA 105 Leu,+
same,Fi CAR AVG,[2]; AA 105 Leu,0.730
same,Fi CAR 1,"[2]; AA 105 Leu, replicate 1",1.223
same,Fi CAR 2,"[2]; AA 105 Leu, replicate 2",0.445
same,Fi CAR 3,"[2]; AA 105 Leu, replicate 3",0.522
same,Fi CAR AVG,[2]; AA 105 Met,0.034
same,Fi CAR 1,"[2]; AA 105 Met, replicate 1",0.791
same,Fi CAR 3,"[2]; AA 105 Met, replicate 3",-0.722
same,Significance (Fi CAR AVG),[2]; AA 105 Phe,+
same,Fi CAR AVG,[2]; AA 105 Phe,3.398
same,Fi CAR 1,"[2]; AA 105 Phe, replicate 1",3.349
same,Fi CAR 2,"[2]; AA 105 Phe, replicate 2",3.354
same,Fi CAR 3,"[2]; AA 105 Phe, replicate 3",3.492
same,Significance (Fi CAR AVG),[2]; AA 105 Ser,+
same,Fi CAR AVG,[2]; AA 105 Ser,0.539
same,Fi CAR 1,"[2]; AA 105 Ser, replicate 1",0.311
same,Fi CAR 2,"[2]; AA 105 Ser, replicate 2",0.896
same,Fi CAR 3,"[2]; AA 105 Ser, replicate 3",0.410
same,Fi CAR AVG,[2]; AA 105 Thr,-0.255
same,Fi CAR 2,"[2]; AA 105 Thr, replicate 2",-0.487
same,Fi CAR 3,"[2]; AA 105 Thr, replicate 3",-0.023
same,Significance (Fi CAR AVG),[2]; AA 105 Trp,+
same,Fi CAR AVG,[2]; AA 105 Trp,3.306
same,Fi CAR 1,"[2]; AA 105 Trp, replicate 1",3.226
same,Fi CAR 2,"[2]; AA 105 Trp, replicate 2",3.199
same,Fi CAR 3,"[2]; AA 105 Trp, replicate 3",3.493
same,Significance (Fi CAR AVG),[2]; AA 105 Tyr,+
same,Fi CAR AVG,[2]; AA 105 Tyr,3.672
same,Fi CAR 1,"[2]; AA 105 Tyr, replicate 1",3.556
same,Fi CAR 2,"[2]; AA 105 Tyr, replicate 2",3.582
same,Fi CAR 3,"[2]; AA 105 Tyr, replicate 3",3.878
same,Fi CAR AVG,[2]; AA 105 Val,-0.016
same,Fi CAR 1,"[2]; AA 105 Val, replicate 1",0.268
same,Fi CAR 2,"[2]; AA 105 Val, replicate 2",0.226
same,Fi CAR 3,"[2]; AA 105 Val, replicate 3",-0.543
same,WT abs Fi 1,"[2]; WT (Ile 105) absolute fitness, replicate 1",-1.491
same,WT abs Fi 2,"[2]; WT (Ile 105) absolute fitness, replicate 2",-1.775
same,WT abs Fi 3,"[2]; WT (Ile 105) absolute fitness, replicate 3",-2.001
same,Significance of average fitness,[3]; CTX-M-14 AA 105 Ala,-
same,Significance of average fitness,[3]; CTX-M-14 AA 105 Arg,-
same,Significance of average fitness,[3]; CTX-M-14 AA 105 Asn,-
same,Significance of average fitness,[3]; CTX-M-14 AA 105 Asp,-
same,Significance of average fitness,[3]; CTX-M-14 AA 105 Cys,-
same,Significance of average fitness,[3]; CTX-M-14 AA 105 Gln,-
same,Significance of average fitness,[3]; CTX-M-14 AA 105 Glu,-
same,Significance of average fitness,[3]; CTX-M-14 AA 105 Gly,-
same,Significance of average fitness,[3]; CTX-M-14 AA 105 His,-
same,Significance of average fitness,[3]; CTX-M-14 AA 105 Ile,-
same,Significance of average fitness,[3]; CTX-M-14 AA 105 Leu,-
same,Significance of average fitness,[3]; CTX-M-14 AA 105 Lys,-
same,Significance of average fitness,[3]; CTX-M-14 AA 105 Met,-
same,Significance of average fitness,[3]; CTX-M-14 AA 105 Pro,-
same,Significance of average fitness,[3]; CTX-M-14 AA 105 Ser,-
same,Significance of average fitness,[3]; CTX-M-14 AA 105 Thr,-
same,Significance of average fitness,[3]; CTX-M-14 AA 105 Val,-
same,"WT abs Fi 1 (absolute fitness of wild type, Replicate 1)",[3]; CTX-M-14 WT (Tyr 105),0.706
same,Fi AVG (average fitness of replicates),[4]; NmcA AA 105 Ala,-0.798
same,Significance of average fitness,[4]; NmcA AA 105 Ala,-
same,Fi AVG (average fitness of replicates),[4]; NmcA AA 105 Arg,-0.438
same,Significance of average fitness,[4]; NmcA AA 105 Arg,-
same,Fi AVG (average fitness of replicates),[4]; NmcA AA 105 Asn,-0.329
same,Significance of average fitness,[4]; NmcA AA 105 Asn,-
same,Fi AVG (average fitness of replicates),[4]; NmcA AA 105 Asp,-0.908
same,Significance of average fitness,[4]; NmcA AA 105 Asp,-
same,Fi AVG (average fitness of replicates),[4]; NmcA AA 105 Cys,-0.727
same,Significance of average fitness,[4]; NmcA AA 105 Cys,-
same,Fi AVG (average fitness of replicates),[4]; NmcA AA 105 Gln,-0.466
same,Significance of average fitness,[4]; NmcA AA 105 Gln,-
same,Fi AVG (average fitness of replicates),[4]; NmcA AA 105 Glu,-0.772
same,Significance of average fitness,[4]; NmcA AA 105 Glu,-
same,Fi AVG (average fitness of replicates),[4]; NmcA AA 105 Gly,-0.274
same,Significance of average fitness,[4]; NmcA AA 105 Gly,-
same,Fi AVG (average fitness of replicates),[4]; NmcA AA 105 His,0.000
same,Fi AVG (average fitness of replicates),[4]; NmcA AA 105 Ile,-0.761
same,Significance of average fitness,[4]; NmcA AA 105 Ile,-
same,Fi AVG (average fitness of replicates),[4]; NmcA AA 105 Leu,-0.728
same,Significance of average fitness,[4]; NmcA AA 105 Leu,-
same,Fi AVG (average fitness of replicates),[4]; NmcA AA 105 Lys,-0.642
same,Significance of average fitness,[4]; NmcA AA 105 Lys,-
same,Fi AVG (average fitness of replicates),[4]; NmcA AA 105 Met,-0.481
same,Significance of average fitness,[4]; NmcA AA 105 Met,-
same,Fi AVG (average fitness of replicates),[4]; NmcA AA 105 Phe,-0.458
same,Significance of average fitness,[4]; NmcA AA 105 Phe,-
same,Fi AVG (average fitness of replicates),[4]; NmcA AA 105 Pro,-0.671
same,Significance of average fitness,[4]; NmcA AA 105 Pro,-
same,Fi AVG (average fitness of replicates),[4]; NmcA AA 105 Ser,-0.589
same,Significance of average fitness,[4]; NmcA AA 105 Ser,-
same,Fi AVG (average fitness of replicates),[4]; NmcA AA 105 Thr,-0.842
same,Significance of average fitness,[4]; NmcA AA 105 Thr,-
same,Fi AVG (average fitness of replicates),[4]; NmcA AA 105 Trp,-0.118
same,Significance of average fitness,[4]; NmcA AA 105 Trp,-
same,Fi AVG (average fitness of replicates),[4]; NmcA AA 105 Tyr,-0.304
same,Significance of average fitness,[4]; NmcA AA 105 Tyr,-
same,Fi AVG (average fitness of replicates),[4]; NmcA AA 105 Val,-0.711
same,Significance of average fitness,[4]; NmcA AA 105 Val,-
same,WT abs Fi 1 (absolute fitness),"[4]; NmcA WT, replicate 1",0.462
same,WT abs Fi 2 (absolute fitness),"[4]; NmcA WT, replicate 2",0.578
